Results on 27 molecules are retold here after patent US11351268B2, “FGF21 C-terminal peptide optimization” (INDIANA UNIVERSITY RESEARCH AND TECHNOLOGY CORPORATION, priority 2016, dated 2022).

This assay has as its target T1, Klotho β (KLB) (Homo sapiens, UniProt Q86Z14).
T1 construct: expressed in transfected cells; host or cells: HEK 293T (ATCC), pooled Zeocin-selected cells stably expressing hKLB from pcDNA3.1(+)
T1 sequence (Q86Z14 1-1044): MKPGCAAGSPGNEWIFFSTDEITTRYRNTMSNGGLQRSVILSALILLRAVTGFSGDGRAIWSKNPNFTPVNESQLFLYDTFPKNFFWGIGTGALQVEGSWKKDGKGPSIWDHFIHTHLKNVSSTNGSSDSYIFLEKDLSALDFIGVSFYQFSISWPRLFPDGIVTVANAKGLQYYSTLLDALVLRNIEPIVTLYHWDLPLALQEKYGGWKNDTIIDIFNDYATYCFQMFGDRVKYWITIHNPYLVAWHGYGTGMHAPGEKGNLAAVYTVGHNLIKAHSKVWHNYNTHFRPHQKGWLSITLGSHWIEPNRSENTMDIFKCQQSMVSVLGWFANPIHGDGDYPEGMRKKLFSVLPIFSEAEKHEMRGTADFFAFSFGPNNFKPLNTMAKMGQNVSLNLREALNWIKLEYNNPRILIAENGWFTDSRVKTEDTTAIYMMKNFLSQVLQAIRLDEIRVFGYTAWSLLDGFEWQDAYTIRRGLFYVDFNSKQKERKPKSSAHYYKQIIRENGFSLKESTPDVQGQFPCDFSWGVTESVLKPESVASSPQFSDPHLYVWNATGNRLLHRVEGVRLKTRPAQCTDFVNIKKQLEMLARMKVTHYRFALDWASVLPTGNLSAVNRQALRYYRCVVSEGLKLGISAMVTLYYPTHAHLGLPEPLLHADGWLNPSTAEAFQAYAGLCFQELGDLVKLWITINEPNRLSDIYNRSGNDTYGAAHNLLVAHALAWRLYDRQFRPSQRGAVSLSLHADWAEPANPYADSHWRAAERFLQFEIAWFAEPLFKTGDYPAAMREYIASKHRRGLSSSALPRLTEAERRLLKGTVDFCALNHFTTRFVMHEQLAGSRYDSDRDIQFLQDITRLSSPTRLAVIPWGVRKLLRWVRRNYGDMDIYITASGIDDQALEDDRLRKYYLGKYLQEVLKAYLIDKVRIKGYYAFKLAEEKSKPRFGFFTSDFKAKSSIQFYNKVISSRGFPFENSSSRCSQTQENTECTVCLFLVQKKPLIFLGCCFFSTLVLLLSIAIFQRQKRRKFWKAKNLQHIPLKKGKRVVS
As to the kind of experiment: cell-based. Type of assay: cell-based. The conditions noted are these: for % Activity vs C25: Table 3, D-amino acid scan, C25 = 100; for Emax: Table 1, native sequence = 100% response, read-out: % max activity; for antagonism of FGF21 activity (in words): 10 nM FGF21 stimulation, 293 HEK hKLB cells. The method, then: Cells were cultured in 10% Fetal Bovine Serum containing DMEM High glucose GLUTAMAX® at 37 C, 95% humidity, 5% CO2. For generating the cell line with stable expression, human KLB gene was synthesized by Genscript and subcloned into pcDNA3.1(+) with ZEOCIN® resistance vector (INVITROGEN®) by NheI and NotI restriction enzyme sites. HEK 293T cells were obtained from ATCC and were transiently transfected at 80% confluency using Lipofectamine 3000 (Invitrogen). Selection for KLB-expressing cells was initiated 48 hours post-transfection in the growth media containing 100 μg/ml of ZEOCIN® (Gibco) and continued for 4 weeks with fresh media added every third day. Human KLB expression in pooled cells was confirmed by Western blot and a functional FGF21 MAPK phosphorylation assay.
293 HEK cells expressing hKLB were plated to 90% confluency in 96 well plates coated with poly-D-Lysine. Cells were serum starved for three hours in 0.1% BSA containing media prior to stimulation with protein and/or an antagonist peptide for ten minutes at 37° C. The cell lysate was used for the detection of phospho-Erk1/2 levels by AlphaSureFire kit using the prescribed protocol. The degree of biochemical activation was recorded and analyzed using Origin software by logistic curve fitting. Tests at each concentration were done in triplicates, and the standard deviation is as shown in the graphs. The calculation of maximal activities was done keeping the FGF21 157-181 or FGF19 169-194 peptide activity as standard. The difference between the Erk1/2 phosphorylation signal for the highest (10 μM) and the lowest (0 μM) tested dose for native peptide was considered as 100% and accordingly all the other values were assigned.

Setting [1] is: Table 5, FGF19/FGF21 chimeric peptides.
Where [2] appears, read: FIG. 8A, substitutions at terminal position of FGF19 169-194 peptide.
[3] abbreviates: FIG. 8B, FGF21 and FGF19 C-terminal peptides.
[4] abbreviates: Table 6, derivatives of SEQ ID NO: 180.

Broadly, the IC50 is the concentration at which inhibition is half-maximal. A high value points to weaker potency.

Non-standard residues stand in square brackets, D forms with d. Residues, ends and D or L forms follow the SMILES beside them. No end group written: not given here.

For the molecule `CSCC[C@H](NC(=O)[C@H](CO)NC(=O)[C@H](CC(C)C)NC(=O)[C@@H]1CCCN1C(=O)[C@H](CC(=O)O)NC(=O)[C@H](CO)NC(=O)[C@H](CO)NC(=O)CNC(=O)[C@@H](NC(=O)[C@H](CC(=O)O)NC(=O)[C@@H]1CCCN1C(=O)[C@@H]1CCCN1)C(C)C)C(=O)N[C@H](C(=O)NCC(=O)N1CCC[C@H]1C(=O)N[C@@H](CO)C(=O)N[C@@H](CCC(N)=O)C(=O)NCC(=O)N[C@H](CCCNC(=N)N)C(=O)N[C@@H](CO)C(=O)N1CCC[C@H]1C(=O)N[C@@H](CO)C(=O)N[C@@H](Cc1ccc(O)cc1)C(=O)N[C@@H](C)C(=O)N[C@@H](CO)C(N)=O)C(C)C` [d19, PPDVG SSDPL SMVGP SQGrS PSYAS] (H-PPDVGSSDPLSMVGPSQG[dR]SPSYAS-NH2; N-terminus and C-terminus assumed), the “% Activity vs C25” value amounted to 270.70 ± 136.83%. For the same molecule, the “fold increase of antagonistic potency over the native peptide” value (relative to native C-terminal peptide) is listed as 2 fold.

Turning to `CSCC[C@H](NC(=O)[C@H](CO)NC(=O)[C@H](CC(C)C)NC(=O)[C@@H]1CCCN1C(=O)[C@H](CC(=O)O)NC(=O)[C@H](CO)NC(=O)[C@H](CO)NC(=O)CNC(=O)[C@@H](NC(=O)[C@H](CC(=O)O)NC(=O)[C@@H]1CCCN1C(=O)[C@@H]1CCCN1)C(C)C)C(=O)N[C@H](C(=O)NCC(=O)N1CCC[C@H]1C(=O)N[C@@H](CO)C(=O)N[C@@H](CCC(N)=O)C(=O)NCC(=O)N[C@@H](CCCNC(=N)N)C(=O)N[C@@H](CO)C(=O)N1CCC[C@@H]1C(=O)N[C@@H](CO)C(=O)N[C@@H](Cc1ccc(O)cc1)C(=O)N[C@@H](C)C(=O)N[C@@H](CO)C(N)=O)C(C)C` [d21, PPDVG SSDPL SMVGP SQGRS pSYAS] (H-PPDVGSSDPLSMVGPSQGRS[dP]SYAS-NH2; N-terminus and C-terminus assumed), the “% Activity vs C25” value is 3.80 ± 0.87%. Molecule `CSCC[C@H](NC(=O)[C@H](CO)NC(=O)[C@H](CC(C)C)NC(=O)[C@@H]1CCCN1C(=O)[C@H](CC(=O)O)NC(=O)[C@H](CO)NC(=O)[C@H](CO)NC(=O)CNC(=O)[C@@H](NC(=O)[C@H](CC(=O)O)NC(=O)[C@@H]1CCCN1C(=O)[C@@H]1CCCN1)C(C)C)C(=O)N[C@H](C(=O)NCC(=O)N1CCC[C@H]1C(=O)N[C@@H](CO)C(=O)N[C@@H](CCC(N)=O)C(=O)NCC(=O)N[C@@H](CCCNC(=N)N)C(=O)N[C@@H](CO)C(=O)N1CCC[C@H]1C(=O)N[C@@H](CO)C(=O)N[C@@H](Cc1ccc(O)cc1)C(=O)N[C@@H](C)C(=O)N[C@H](CO)C(N)=O)C(C)C` [d25, PPDVG SSDPL SMVGP SQGRS PSYAs] (H-PPDVGSSDPLSMVGPSQGRSPSYA[dS]-NH2; N-terminus and C-terminus assumed) gave an IC50 (Table 3, D-amino acid scan of FGF21 C-terminal 25mer) of 264 ± 120 nM. For “APDVGSSDPLSMVGPSQGRSPSYAS-NH2 (C-terminus assumed) [Peptide A1, APDVGSSDPLSMVGPSQGRSPSYAS]”, the Emax is 100%. On to “FGF19 (amino acids 165-194): C-terminal peptide of FGF19, amino acids 165-194 (FLPMLPMVPEEPEDLRGHLESDMFSSPLET) [reference compound]”, for which the “antagonism of FGF21 activity (in words)” value is given as “exhibit antagonism to FGF21 activity”. On to “FGF21 159-181: 23-amino acid C-terminal fragment of FGF21 (DVGSSDPLSMVGPSQGRSPSYAS; UniProt Q9NSA1 187-209, looked up, fragment) [reference compound]”, for which the “antagonism of FGF21 activity (in words)” value was “weak antagonism”. Same read-out and setting: with “FGF21 160-181: C-terminal fragment of FGF21 described as 24-amino acid (VGSSDPLSMVGPSQGRSPSYAS; UniProt Q9NSA1 188-209, looked up, fragment) [reference compound]” the entry was “dramatically improved its antagonistic potential”; with “FGF21 162-181: C-terminal fragment of FGF21, residues 162-181 (SSDPLSMVGPSQGRSPSYAS) [reference compound]”, “non-functional”.

With “FGF21 (amino acids 153-181): C-terminal peptide of FGF21, amino acids 153-181 (LAPQPPDVGSSDPLSMVGPSQGRSPSYAS) [reference compound]”, the “antagonism of FGF21 activity (in words)” value is “exhibit antagonism to FGF21 activity”. Turning to “PADVGSSDPLSMVGPSQGRSPSYAS-NH2 (C-terminus assumed) [Peptide A2, PADVGSSDPLSMVGPSQGRSPSYAS]”, the Emax was 98.5%.

With “PLETDSMDPFGLVGPSQGRSPSFEA-NH2 (C-terminus assumed) [Peptide 0430]”, it took 15.9 ± 1.1 nM to reach half-maximal inhibition under setting [1] (IC50). Consider “PLETDSMDPFGLVTGLEAVRSPSFEA-NH2 (C-terminus assumed) [FGF19 A25]”, for which the IC50 was 10.5 nM under setting [2], 0.5 nM under setting [3] and 19.1 ± 1.5 nM under setting [1]. “PLETDSMDPFGLVTGLEAVRSPSFEE-NH2 (C-terminus assumed) [Peptide K194E]” registered a 50% inhibitory concentration (IC50) under setting [2] of 87.9 nM. This lies in the double-digit nanomolar range. For “PLETDSMDPFGLVTGLEAVRSPSFEK-NH2 (C-terminus assumed) [FGF19 WT, reference compound]”, the concentration for half-maximal inhibition (IC50) stood at 50 nM under setting [3] and 270 ± 90 nM (Table 2(A), FGF19 169-194 alanine mutants, ≥95% maximal activity). As for “PLETDSMDPFGLVTGLEAVRSPSFEL-NH2 (C-terminus assumed) [Peptide K194L]”, under setting [2], half-maximal inhibition (IC50) required 17.3 nM. This counts as double-digit nanomolar. Under setting [2], “PLETDSMDPFGLVTGLEAVRSPSFES-NH2 (C-terminus assumed) [Peptide K194S]” showed a concentration for half-maximal inhibition (IC50) of 22.3 nM. Molecule “PLETDSSDPLSMVGPSQGRSPSFEA-NH2 (C-terminus assumed) [Peptide 0432]” registered an IC50 under setting [1] of 120 ± 6.3 nM. Turning to “PLETDSSDPLSMVTGLEAVRSPSYAA-NH2 (C-terminus assumed) [Peptide 0434]”, under setting [1], it took 264 ± 78.8 nM to reach half-maximal inhibition (IC50).

Take “PPAVGSSDPLSMVGPSQGRSPSYAS-NH2 (C-terminus assumed) [Peptide A3, PPAVGSSDPLSMVGPSQGRSPSYAS]”: the Emax was determined as 87.8%. As to “PPDAGSSDPLSMVGPSQGRSPSYAS-NH2 (C-terminus assumed) [Peptide A4, PPDAGSSDPLSMVGPSQGRSPSYAS]”, the Emax was 63.6%. For the molecule “PPDVASSDPLSMVGPSQGRSPSYAS-NH2 (C-terminus assumed) [Peptide A5, PPDVASSDPLSMVGPSQGRSPSYAS]”, the “% max activity” value turned out to be 102.5%. “PPDVFSMDPFGLVGPSQGRSPSFEA-NH2 (C-terminus assumed) [Peptide 0480]”: the half-inhibitory concentration (IC50) under setting [4] is 2.6 ± 0.5 nM.

Regarding “PPDVGASDPLSMVGPSQGRSPSYAS-NH2 (C-terminus assumed) [Peptide A6, PPDVGASDPLSMVGPSQGRSPSYAS]”, the Emax was found to be 89.2%. Turning to “PPDVGSADPLSMVGPSQGRSPSYAS-NH2 (C-terminus assumed) [Peptide A7, PPDVGSADPLSMVGPSQGRSPSYAS]”, the Emax is 94.5%. For the molecule “PPDVGSMDPFGLVGPSQGRSPSFEA-NH2 (C-terminus assumed) [Peptide 0431]”, the half-inhibitory concentration (IC50) amounted to 4.1 ± 0.1 nM under setting [1] and 7.1 ± 3 nM under setting [4].

“PPDVGSMDPFGLVGRSQGRSPSFEA-NH2 (C-terminus assumed) [Peptide 0470]”: the IC50 under setting [4] is 4.9 ± 1.1 nM. For “PPDVGSMDPFGLVTGLEAVRSPSYAA-NH2 (C-terminus assumed) [Peptide 0433]”, the concentration for half-maximal inhibition (IC50) under setting [1] came to 10.7 ± 0.7 nM.
